The MIC is the smallest concentration in the dilution series that meets the test's criterion for growth inhibition.

Molecules are shown by their SMILES. In brackets after ≈: the same amount, converted by molar mass. Several values for one entry are separate records, joined by “and”; a condition that tells them apart may be missing. Identical values can stand only once. Bounds are passed on as bounds.

Among the test systems are Enterococcus faecium; Enterobacter cloacae; Staphylococcus aureus MR; Aspergillus fumigatus; Staphylococcus aureus; Bacillus subtilis 168.
Common to all, as to assay: ≥ marks a high value that may be exact or a test limit, other limits are often not marked, values filed in µg/mL are converted to µM
Assay [1] deals with Pseudomonas aeruginosa ATCC 27853.
Assay [2] deals with Acinetobacter baumannii 4-MRGN.
In assay [3] the test system is Staphylococcus epidermidis ATCC 51625.
Assay [4] has as its system Staphylococcus aureus ATCC 25923.
For assay [5], the system named is Candida parapsilosis NRRL Y-1761.
Assay [6] concerns Fusarium solani NRRL 28548.
Assay [7] has as its system Candida albicans NRRL Y-326.
For assay [8], the system named is Acinetobacter baumannii ATCC 17978.
In assay [9] the test system is Escherichia coli ATCC 25922.
Assay [10] relates to Staphylococcus aureus ATCC 33592.
Assay [11] concerns Lichtheimia corymbifera NRRL 6251.
Assay [12] relates to Candida krusei NRRL Y-27803.
Assay [13] deals with Pseudomonas aeruginosa ATCC 19660.
Assay [14] concerns Klebsiella pneumoniae ATCC 10031.
Assay [15] concerns Aspergillus flavus ATCC MYA-3651.
The test system of assay [16] is Mucor circinelloides NRRL 3631.
The subject of assay [17] is Pseudomonas aeruginosa KCTC 1637.
For assay [18], the system named is Staphylococcus epidermidis KCTC 1917.
Assay [19] deals with Acinetobacter baumannii KCCM 1053.
Assay [20] deals with Escherichia coli KCTC 1682.
Assay [21] concerns Enterococcus faecalis ATCC 51575.
The test system of assay [22] is Acinetobacter baumannii ATCC BAA-1605.
Assay [23] deals with Staphylococcus aureus KCCM 40510.
Assay [24] concerns Staphylococcus aureus KCTC 1621.
Assay [25] deals with Salmonella typhimurium KCTC 1926.
For assay [26], the system named is Bacillus subtilis KCTC 3068.
In assay [27] the test system is Enterococcus faecalis KCCM 11814.
Assay [28] relates to Pseudomonas aeruginosa CCARM 2180.
Assay [29] concerns Staphylococcus aureus Newman.
For assay [30], the system named is Staphylococcus aureus USA 300.
Assay [31] concerns Staphylococcus aureus UAMS-1.
Assay [32] relates to Staphylococcus aureus USA 400.
In assay [33] the test system is Staphylococcus aureus MU50.
Assay [34] deals with Staphylococcus aureus USA 200.
Assay [35] concerns Klebsiella pneumoniae ATCC 13883.
In assay [36] the test system is Staphylococcus epidermidis 1457.
The test system of assay [37] is Candida albicans ATCC 10231.
For assay [38], the system named is Pseudomonas aeruginosa PAO1.
For assay [39], the system named is Candida glabrata ATCC 2001.
Assay [40] relates to Candida tropicalis ATCC 13803.

Turning to `CC[C@H](C)[C@H](NC(=O)[C@H](CCC(=O)O)NC(=O)[C@@H]1CSSC[C@@H]2NC(=O)[C@H](Cc3ccc(O)cc3)NC(=O)[C@@H](NC(=O)[C@@H](NC(=O)[C@H](C)N)[C@@H](C)O)CSSC[C@H](NC(=O)[C@H](CCCN=C(N)N)NC(=O)CNC(=O)[C@H]([C@@H](C)O)NC(=O)[C@H](CCCN=C(N)N)NC2=O)C(=O)N[C@@H](C)C(=O)N[C@@H]([C@@H](C)O)C(=O)N[C@@H](CCCN=C(N)N)C(=O)N[C@@H](CCC(=O)O)C(=O)N[C@@H](CO)C(=O)N[C@@H](CC(C)C)C(=O)N[C@@H](CO)C(=O)NCC(=O)N[C@@H](C(C)C)C(=O)N1)C(=O)N[C@@H](CO)C(=O)NCC(=O)N[C@@H](CCCN=C(N)N)C(=O)N[C@@H](CC(C)C)C(=O)N[C@@H](Cc1ccc(O)cc1)C(=O)N[C@@H](CCCN=C(N)N)C(=O)O` [ATCYCRTGRCATRESLSGVCEISGRLYR], the MIC was at least 99.9 µM in the assay on Enterococcus faecium, over 99.9 µM in assay [1] and at least 99.9 µM in assay [2].

In the case of `CC[C@H](C)[C@H](NC(=O)[C@H](CCCCN)NC(=O)[C@H](C)NC(=O)[C@H](CCCN=C(N)N)NC(=O)[C@H](CC(C)C)NC(=O)[C@H](CCCN=C(N)N)NC(=O)[C@@H](NC(=O)[C@H](CCCCN)NC(=O)[C@@H](NC(=O)[C@H](CCCCN)NC(=O)[C@H](C)NC(=O)[C@H](CCCN=C(N)N)NC(=O)[C@H](CC(C)C)NC(=O)[C@H](CCCCN)NC(=O)[C@@H](N)Cc1ccccc1)[C@@H](C)CC)C(C)C)C(=O)N[C@@H](CCCCN)C(=O)N[C@@H](CC(C)C)C(N)=O` [FKLRAKIKVRLRAKIKL], the minimum inhibitory concentration (MIC) in assay [3] is 1.92 µM (≈ 4 µg/mL); in assay [4], 2.88 µM (≈ 6 µg/mL); in the assay with Enterobacter cloacae, 2.72 µM (≈ 5.65 µg/mL); in [5], 30.7 µM (≈ 64 µg/mL); against Staphylococcus aureus MR it was 3.84 µM (≈ 8 µg/mL); in [6], 0.961 µM (≈ 2 µg/mL). In addition, the MIC in assay [7] is 30.7 µM (≈ 64 µg/mL); in assay [8], 7.69 µM (≈ 16 µg/mL); in assay [9], 2.88 µM (≈ 6 µg/mL); in [1], 2.88 µM and 7.69 µM; in assay [10] it was 3.84 µM (≈ 8 µg/mL); in assay [11], 0.961 µM (≈ 2 µg/mL). In addition, the minimal inhibitory concentration (MIC) in [12] was 30.7 µM (≈ 64 µg/mL); in [13], 15.4 µM (≈ 32 µg/mL); against Aspergillus fumigatus it was at least 43.5 µM; against Staphylococcus aureus, 2.72 µM (≈ 5.65 µg/mL); in [14], 15.4 µM (≈ 32 µg/mL); in assay [15], at least 61.5 µM. In assay [16], this molecule displayed a minimum inhibitory concentration (MIC) of at least 61.5 µM.

As to `CC[C@H](C)[C@@H]1NC(=O)[C@H](CCCN=C(N)N)NC(=O)[C@@H](NC(=O)[C@H](CC(C)C)NC(=O)[C@@H](N)CCCN=C(N)N)CSSC[C@@H](C(=O)N[C@@H](CCCN=C(N)N)C(=O)O)NC(=O)[C@H](Cc2c[nH]c3ccccc23)NC(=O)[C@H](CCCN=C(N)N)NC(=O)[C@H]([C@@H](C)CC)NC(=O)[C@H](Cc2c[nH]c3ccccc23)NC(=O)[C@H](Cc2c[nH]c3ccccc23)NC1=O` [RLCRIWWIRWCR], the minimum inhibitory concentration (MIC) in assay [17] is 4 µM (≈ 6.98 µg/mL); in assay [18], 8 µM (≈ 14 µg/mL); in assay [19], 22.6 µM (≈ 39.5 µg/mL); in assay [20] it was 2.83 µM (≈ 4.94 µg/mL); in assay [21], 11.3 µM (≈ 19.7 µg/mL); in assay [22], at least 64 µM. For the same molecule, the minimal inhibitory concentration (MIC) in [23] is 22.6 µM (≈ 39.5 µg/mL); in assay [24] it was 16 µM (≈ 27.9 µg/mL); in assay [25], 8 µM (≈ 14 µg/mL); in assay [26], at least 32 µM; in [27] it was at least 32 µM; in assay [28], at least 64 µM.

With `CC[C@H](C)[C@H](NC(=O)[C@@H](NC(=O)[C@@H]1CCCN1C(=O)[C@H](CC(C)C)NC(=O)[C@@H](NC(=O)[C@@H](N)CO)[C@@H](C)CC)[C@@H](C)O)C(=O)N[C@H](C(=O)N[C@@H](CO)C(=O)N[C@@H](Cc1ccccc1)C(=O)N[C@@H](CC(C)C)C(=O)N[C@@H](CO)C(=O)N[C@@H](CCCCN)C(=O)N[C@H](C(=O)N[C@@H](Cc1ccccc1)C(N)=O)C(C)C)C(C)C` [SILPTIVSFLSKVF], the MIC in assay [29] turned out to be 3.1 µM (≈ 4.8 µg/mL); in [30], 3.1 µM (≈ 4.8 µg/mL); in assay [31], 25 µM (≈ 38.7 µg/mL); in assay [32] it was 3.1 µM (≈ 4.8 µg/mL); in [33], 6.2 µM (≈ 9.61 µg/mL); in assay [34], 3.1 µM (≈ 4.8 µg/mL). Also, the MIC in assay [35] was at least 50 µM; in assay [36] it was 3.1 µM (≈ 4.8 µg/mL); in [37], 12.5 µM (≈ 19.4 µg/mL); in assay [9] it was over 50 µM; in assay [38], over 50 µM; against Bacillus subtilis 168, 6.3 µM (≈ 9.76 µg/mL). Besides, the figures for the MIC in assay [39] and in [40] were 12.5 µM (≈ 19.4 µg/mL) and 3.1 µM (≈ 4.8 µg/mL), respectively.

These data come from DBAASP.
